For the experiment, the target named is T1, BACE1 (Homo sapiens, UniProt P56817).
T1 construct: purchased Invitrogen P2985
Kind of experiment: BACE1 fluorescence resonance energy transfer (FRET) based enzymatic inhibition assay. It is filed as biochemical. The conditions noted are these: for Inhibition ratio (100 μM): compound concentration 100 μM, Table 1; for inhibition at 100 µM: compound concentration 100 µM; for inhibition ratio: ligand concentration of 100 μM. How it is done: 3.3. Fluorescence Resonance Energy Transfer (FRET) Based Enzymatic Assay
The BACE1 fluorescence resonance energy transfer assay kit was purchased from Invitrogen (Carlsbad, CA, USA, cat. P2985). BACE1 activity assays were carried out following the manufacturer’s protocol. The enzyme, substrate, and compounds were diluted in a reaction buffer (50 mM sodium acetate, pH 4.5) to make 3× working solutions. The assay was carried out in a black 384-well microplate with a final volume of 30 μL which contains each 10 μL of 3× substrate, enzyme, and compound stocks, respectively. The final concentration of DMSO is less than 3% (v/v). The reaction mixture was incubated at 37 °C for 90 min with oscillation. Then, 10 μL of a stop solution (2.5 M sodium acetate) was added to stop the reaction. Finally, the fluorescent intensity of the enzymatic product was measured at Ex/Em = 535 nm/585 nm on a BioTek SYNERGY4 reader (BioTek, Winooski, VT, USA). Triplicate was run for each assay. IC50 values were calculated from the concentration–inhibition curves by nonlinear regression analysis. Eight concentrations were tested for each compound to produce the concentration–inhibition curve.

Read-outs that look alike come from different tables or passages of the source.

T1 sequence (P56817 46-501): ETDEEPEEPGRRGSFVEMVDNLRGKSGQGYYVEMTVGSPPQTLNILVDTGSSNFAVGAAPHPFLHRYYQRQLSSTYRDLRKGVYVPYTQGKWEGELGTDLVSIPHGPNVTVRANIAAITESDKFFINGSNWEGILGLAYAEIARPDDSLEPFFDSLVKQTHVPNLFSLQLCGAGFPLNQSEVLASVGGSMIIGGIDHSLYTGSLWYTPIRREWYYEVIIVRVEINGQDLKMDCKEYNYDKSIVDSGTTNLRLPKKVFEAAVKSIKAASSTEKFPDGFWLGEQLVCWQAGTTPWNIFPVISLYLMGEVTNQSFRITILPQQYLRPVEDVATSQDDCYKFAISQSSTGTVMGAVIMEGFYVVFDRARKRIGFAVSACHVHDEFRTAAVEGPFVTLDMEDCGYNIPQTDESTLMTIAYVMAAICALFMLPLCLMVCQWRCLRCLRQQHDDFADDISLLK

Take `CC(=O)Nc1c(Cl)cc(CNC(=N)NC(=O)Cn2ccc3ccccc32)cc1Cl` [Compound 19, N-(N-(4-Acetamido-3,5-dichlorobenzyl)carbamimidoyl)-2-(1H-indol-1-yl)acetamide]: the IC50 stood at 1010 ± 91 nM and the “Inhibition ratio (100 μM)” value came out at 100%. The inhibition at 100 µM (Table 2) amounted to 100%.

Regarding `N=C(NCc1cc(Cl)cc(Cl)c1)NC(=O)Cn1ccc2ccccc21` [Compound 17, N-(N-(3,5-Dichlorobenzyl)carbamimidoyl)-2-(1H-indol-1-yl)acetamide], the concentration for half-maximal inhibition (IC50) turned out to be 8750 ± 1070 nM and the “Inhibition ratio (100 μM)” value was found to be 100%.

With `N=C(NCc1ccccc1)NC(=O)Cn1ccc2ccccc21` [Compound 12], the “Inhibition ratio (100 μM)” value worked out at 40.69%.

As for `CC(=O)Nc1ccc(CNC(=N)NC(=O)Cn2ccc3ccccc32)cc1` [Compound 18, N-(N-(4-Acetamidobenzyl)carbamimidoyl)-2-(1H-indol-1-yl)acetamide], the “Inhibition ratio (100 μM)” value is given as 35.3%.

For `COc1cccc(CNC(=N)NC(=O)Cn2ccc3ccccc32)c1` [Compound 14, 2-(1H-Indol-1-yl)-N-(N-(3-methoxybenzyl)carbamimidoyl)acetamide], the “Inhibition ratio (100 μM)” value was determined as 58.75%.

Turning to `N=C(NCc1cccc(OC(F)(F)F)c1)NC(=O)Cn1ccc2ccccc21` [Compound 16, 2-(1H-Indol-1-yl)-N-(N-(3-(trifluoromethoxy)benzyl)carbamimidoyl)acetamide], the “Inhibition ratio (100 μM)” value worked out at 66.51%.

On to `CCNc1c(Cl)cc(CNC(=N)NC(=O)Cn2ccc3ccccc32)cc1Cl` [Compound 20, N-(N-(3,5-Dichloro-4-(ethylamino)benzyl)carbamimidoyl)-2-(1H-indol-1-yl)acetamide], for which the “Inhibition ratio (100 μM)” value stood at 46.8%.

Consider `CC(C)C(=O)Nc1c(Cl)cc(CNC(=N)NC(=O)Cn2ccc3ccccc32)cc1Cl` [Compound 21, N-(4-((3-(2-(1H-Indol-1-yl)acetyl)guanidino)methyl)-2,6-dichlorophenyl)isobutyramide], for which the IC50 is 1720 ± 210 nM and the “Inhibition ratio (100 μM)” value was determined as 92.2%.

Take `CC(=O)Nc1c(Cl)cc(CNC(=N)NC(=O)Cn2ccc3ccc(Br)cc32)cc1Cl` [Compound 23, N-(N-(4-Acetamido-3,5-dichlorobenzyl)carbamimidoyl)-2-(6-bromo-1H-indol-1-yl)acetamide]: for the setting “Table 2”, the IC50 amounted to 79 ± 8 nM and the inhibition at 100 µM is 100%.

Regarding `COc1ccc2ccn(CC(=O)NC(=N)NCc3cc(Cl)c(NC(C)=O)c(Cl)c3)c2c1` [Compound 27, N-(N-(4-Acetamido-3,5-dichlorobenzyl)carbamimidoyl)-2-(6-methoxy-1H-indol-1-yl)acetamide], under “Table 2”, the IC50 was found to be 224 ± 33 nM and the inhibition at 100 µM worked out at 103%.

In the case of `CC(=O)Nc1c(Cl)cc(CNC(=N)NC(=O)Cn2ccc3cc(Br)ccc32)cc1Cl` [Compound 22, N-(N-(4-Acetamido-3,5-dichlorobenzyl)carbamimidoyl)-2-(5-bromo-1H-indol-1-yl)acetamide], where the note is “Table 2”, the IC50 amounted to 106 ± 13 nM and the inhibition at 100 µM is 109%.

`CC(=O)Nc1c(Cl)cc(CNC(N)=NC(=O)Cn2ccc3ccc(CN(C)S(C)(=O)=O)cc32)cc1Cl` [Compound 28]: under “Table 2”, the 50% inhibitory concentration (IC50) stood at 840 ± 101 nM and the inhibition at 100 µM was 100%.

`N=C(N)NCCn1ccc2ccccc21` [Compound 4, 1-(2-(1H-indol-1-yl)ethyl)guanidine]: the IC50 was greater than 100000 nM and the inhibition ratio result was “about 42%”.

For the compound `CC(=O)Nc1c(Cl)cc(CNC(=N)NC(=O)Cn2ccc3cc(C#N)ccc32)cc1Cl` [Compound 24, N-(N-(4-Acetamido-3,5-dichlorobenzyl)carbamimidoyl)-2-(5-cyano-1H-indol-1-yl)acetamide], under “Table 2”, the IC50 was determined as 57 ± 4 nM and the inhibition at 100 µM worked out at 99.5%.

Consider `N=C(N)NC(=O)Cn1ccc2ccccc21` [Compound 5, N-Carbamimidoyl-2-(1H-indol-1-yl)acetamide], for which the “Inhibition ratio (100 μM)” value is recorded as 77.00% and the inhibition ratio was 77%.

As to `N=C(NCc1cccc(I)c1)NC(=O)Cn1ccc2ccccc21` [Compound 13, 2-(1H-Indol-1-yl)-N-(N-(3-iodobenzyl)carbamimidoyl)acetamide], the “Inhibition ratio (100 μM)” value was found to be 85.24%.

For the compound `N=C(NCc1cc(F)cc(F)c1)NC(=O)Cn1ccc2ccccc21` [Compound 15, N-(N-(3,5-Difluorobenzyl)carbamimidoyl)-2-(1H-indol-1-yl)acetamide], the “Inhibition ratio (100 μM)” value came to 52.38%.

One may read the IC50 as the concentration that inhibits the measured activity by half. The term inhibition denotes the drop in the measured response relative to a control, in per cent.

The record behind these values is article PMC6270065, “Virtual Screening and Structure-Based Discovery of Indole Acylguanidines as Potent β-secretase (BACE1) Inhibitors” (Molecules, 2013).
